Results: patent US11208433B2, “Peptide for inhibiting skin inflammation and composition for preventing or treating skin inflammation containing the same” (AVIXGEN Inc., priority 2017, dated 2021)

Legend:
[1] = system: atopic dermatitis animal model; test: Ear thickness measurement in atopic dermatitis animal model; type: in vivo, NC/Nga mouse; details: FIG. 2; for ear thickness compared with induced control group (group 2): 7th and 14th day after administration, tetrapeptide 0.622, ACP-tetrapeptide 4.987, prednisolone 50 μg/ear once a day, p<0.001 or p<0.01
Description: (§1) After the ear auricle of the NC/Nga mouse was shaved with a razor, the epilating agent was applied in an appropriate amount for the complete depilation. After the epilating agent was wiped off, Then, 100 mg of the AD-inducing reagent shown in Table 2 as below was uniformly applied to the ear auricle using a micropipette tip, thereby inducing atopic dermatitis for the first time. After shaving with a razor for necessary, 150 μL of a 4% SDS aqueous solution was uniformly applied to the ear auricle using a micropipette, dried with a cold air using a dryer, and air-dried for about 2 to 3 hours. Then, 100 mg of the same AD-inducing reagent was uniformly applied to the ear auricle using a micropipette tip, thereby inducing atopic dermatitis after 2 times. All treatments were carried out twice a week to be 6 times for a total of 3 weeks, thereby producing atopic dermatitis animal model. The mice of groups 2 to 5 were obtained by the atopic dermatitis animal model prepared in Experimental Method 3 as described above. The experimental substance and the control substance were uniformly applied to the ear auricle using a micropipette tip. From the day of the experimental substance administration (Day 0) to the day of the autopsy (Day 14), they were administered once a day for 2 weeks. Ear thickness was measured for each individual by calipers, and the ear area was photographed. Ear thickness measurement and photographing were performed once a week on the day of starting the experimental substance administration and thereafter.

[2] = system: atopic dermatitis animal model; test: Visual pathological evaluation (skin clinical index) in atopic dermatitis animal model; type: in vivo, NC/Nga mouse; details: 14th day after administration; p<0.05; FIG. 6
Description: as §1, with “[…] For each individual, 0 (none), 1 (mild), 2 (moderate) and 3 (severe)” for “From the day of the experimental substance administration (Day 0) to the day of the autopsy (Day 14), they”, “recorded” for “administered once a day”, “erythema/hemorrhage, edema, excoriation/erosion” for “2 weeks. Ear thickness was measured for each individual by calipers,”, “scaling/dryness. […]” for “the ear area was photographed. Ear thickness measurement and photographing were performed once a week on the day of starting the experimental substance administration and thereafter.”

[3] = system: atopic dermatitis animal model; test: Histopathological examination of ear epidermis and dermis (H&E scoring); type: in vivo, NC/Nga mouse; details: infiltration by inflammatory cells, p<0.05, FIGS. 8 and 9; for epidermis score level compared with group 2: hypertrophy, hyperkeratosis
Description: After the ear auricle of the NC/Nga mouse was shaved with a razor, the epilating agent was applied in an appropriate amount for the complete depilation. After the epilating agent was wiped off, Then, 100 mg of the AD-inducing reagent shown in Table 2 as below was uniformly applied to the ear auricle using a micropipette tip, thereby inducing atopic dermatitis for the first time. After shaving with a razor for necessary, 150 μL of a 4% SDS aqueous solution was uniformly applied to the ear auricle using a micropipette, dried with a cold air using a dryer, and air-dried for about 2 to 3 hours. Then, 100 mg of the same AD-inducing reagent was uniformly applied to the ear auricle using a micropipette tip, thereby inducing atopic dermatitis after 2 times. All treatments were carried out twice a week to be 6 times for a total of 3 weeks, thereby producing atopic dermatitis animal model. The mice of groups 2 to 5 were obtained by the atopic dermatitis animal model prepared in Experimental Method 3 as described above. The experimental substance and the control substance were uniformly applied to the ear auricle using a micropipette tip. From the day of the experimental substance administration (Day 0) to the day of the autopsy (Day 14), they were administered once a day for 2 weeks. On the day of the autopsy, ears were removed for the histopathological examination and fixed in 10% neutral buffered formalin solution. The fixed tissues were subject to the general tissue treatment such as reprofiling, dehydration, paraffin embedding, and dissection, thereby preparing specimens for histopathological examination. Then, hematoxylin and eosin (H & E) and TUNEL assays were performed on histopathologic specimens, and the light microscopy (Olympus BX53, Japan) was used to observe histopathologic changes. In the histopathologic evaluation using hematoxylin and eosin staining slides, in order to compare the degree of the lesion with the induced control group, the most severe lesion was selected, and then the hypertrophy, hyperkeratosis and infiltration by inflammatory cells were evaluated in the epidermis. In the dermis, the infiltration by inflammatory cells was evaluated. Scoring criteria are the same as 0 (no symptoms), 1 (mild), 2 (moderate), and 3 (severe) (Taniguchi Y et al 2003).

IgE = test: ELISA analysis of serum IgE in atopic dermatitis animal model; details: day of autopsy (Day 14)
histamine = test: ELISA analysis of serum histamine in atopic dermatitis animal model; type: in vivo, NC/Nga mouse; details: day of autopsy (Day 14)
Description: (§2) After the ear auricle of the NC/Nga mouse was shaved with a razor, the epilating agent was applied in an appropriate amount for the complete depilation. After the epilating agent was wiped off, Then, 100 mg of the AD-inducing reagent shown in Table 2 as below was uniformly applied to the ear auricle using a micropipette tip, thereby inducing atopic dermatitis for the first time.
(§3) After shaving with a razor for necessary, 150 μL of a 4% SDS aqueous solution was uniformly applied to the ear auricle using a micropipette, dried with a cold air using a dryer, and air-dried for about 2 to 3 hours. Then, 100 mg of the same AD-inducing reagent was uniformly applied to the ear auricle using a micropipette tip, thereby inducing atopic dermatitis after 2 times. All treatments were carried out twice a week to be 6 times for a total of 3 weeks, thereby producing atopic dermatitis animal model.
(§4) The mice of groups 2 to 5 were obtained by the atopic dermatitis animal model prepared in Experimental Method 3 as described above.
(§5) The experimental substance and the control substance were uniformly applied to the ear auricle using a micropipette tip. From the day of the experimental substance administration (Day 0) to the day of the autopsy (Day 14), they were administered once a day for 2 weeks.
On the day of the autopsy, blood samples were collected from the abdominal vein using a syringe. The serum isolated from the blood was analyzed for IgE and histamine using an ELISA kit.

[4] = system: atopic mouse skin tissues; test: Immunohistochemical staining of atopic mouse skin tissue (angiogenic marker, inflammatory cells, keratin); type: in vivo, NC/Nga mouse
Description: as §2, §3, §4, §5
Atopy mouse skin tissues were immersed in Xylene three times for 5 minutes, 100% ethanol for 2 minutes, 95% ethanol for 2 minutes, 90% ethanol for 2 minutes, 70% ethanol for 2 minutes and D.W. for 2 minutes to remove paraffin and to perform hydration. After washing with PBS, they were treated with 0.2% Triton X-100 to increase cell permeability. After re-washing with PBS, they were reacted with blocking solution, 3% bovine serum albumin, for 1 hour. For inflammatory cells and keratin staining, they were reacted with F4/80 (sc-377009, Santa Cruz) and cytokeratin (NB600-579, NOVUSBIO) antibodies, respectively, at room temperature for 2 hours. After washing with PBS, they were treated with Texas Red (ab6787, Abcam) secondary antibody and reacted at room temperature for 60 minutes. The mounting solution was dropped on the tissue of the slide. Then, the tissue was covered with a cover slide, and the sample was observed under a fluorescence microscope. For analysis of the degree of angiogenesis, the atopic skin tissue was reacted with FITC-conjugated isolectin B4 (L2895, Sigma), a blood vessel marker at room temperature for 2 hours. The mounting solution was dropped on the tissue of the slide. Then, the tissue was covered with a cover slide, and the sample was observed under a fluorescence microscope
The mouse skin tissues stained with the respective markers were photographed using a fluorescence microscope (DMil, Leica, Germany), and fluorescence intensities were quantitatively analyzed using an ImageJ program (NIH, Bethesda, Md., USA).

[5] = system: VE-cadherin (adherens junction); test: Recovery of VE-cadherin broken by VEGF in HUVEC (confocal immunofluorescence); type: cell-based, Human; details: peptide pretreatment 30 minutes, VEGF 20 ng/ml 1 hour, FIGS. 16 and 17
Description: (§6) HUVECs were starved with M199 media supplemented with 1% FBS for 4 hours, inoculated on a 24-well plate containing glass at the number of 1×10^5 cells, and cultured for 24 hours to attach the cells to the glass. HUVECs were pretreated with the acetylated tetrapeptide and the non-acetylated tetrapeptide (—Ac) for 30 minutes and treated with VEGF at a concentration of 20 ng/ml for 1 hour. Thereafter, the cells were washed three times with PBS, fixed in 3.7% formaldehyde for 20 minutes, and treated with PBS containing 0.2% Triton X-100 to increase […] permeability. After blocking with 3% BSA for 1 hour, they were reacted with VE-cadherin (adherens junction) and ZO-1 (tight junction) antibodies at room temperature for 2 hours and washed three times with PBS. They were treated with Cy3 secondary antibodies, reacted at room temperature for 1 hour, washed twice with PBS, and stained with DAPI for 10 minutes. The huvec-attached glass was removed and mounted on a sliding glass.

ZO-1 (tight junction) = test: Recovery of ZO-1 broken by VEGF in HUVEC (confocal immunofluorescence); type: cell-based, Human; details: peptide pretreatment 30 minutes, VEGF 20 ng/ml 1 hour, FIGS. 18 and 19
Description: as §6

Molecule | ear thickness compared with induced control group (group 2) [1] | scaling/dryness level compared with group 2 [2] | epidermis score level compared with group 2 [3] | dermis score level compared with group 2 [3] | IgE level compared with group 2 (induced control) (IgE; p<0.001 or p<0.01, FIG. 7) | ear thickness compared with normal control group (group 1) ([1]; 14th day after administration, p<0.001) | histamine level compared with prednisolone treated group (histamine; FIG. 7) | histamine level compared with group 2 (induced control) (histamine; p<0.001 or p<0.01, FIG. 7) | angiogenesis (Isolectin B4 staining) ([4]; atopic mouse skin tissue, also similar to prednisolone treated group, FIG. 10) | inflammatory cell inflow (F4/80 staining) ([4]; atopic mouse skin tissue, also similar to prednisolone treated group, FIG. 11) | keratinization and fibrosis (cytokeratin staining) ([4]; atopic mouse skin tissue, also similar to prednisolone treated group, FIG. 12) | anti-atopic effect compared with prednisolone ([4]; treatment amount having a molar ratio lower than 1000 times that of prednisolone, FIG. 13) | damage level of VE-cad caused by VEGF [5] | damage level of ZO-1 caused by VEGF (ZO-1 (tight junction)) | IgE level compared with prednisolone treated group (IgE; FIG. 7) | IgE level compared with normal control group (IgE; p<0.001 or p<0.01, FIG. 7)
C[C@]12C=CC(=O)C=C1CC[C@@H]1[C@@H]2[C@@H](O)C[C@@]2(C)[C@H]1CC[C@]2(O)C(=O)CO [Prednisolone, prednisolone, reference compound] | significantly thinner | significantly lower | significantly lower | significantly lower | significantly lower |  |  |  |  |  |  |  |  |  |  | 
RLYE [Tetrapeptide] | significantly thinner |  | significantly lower | significantly lower | significantly lower | significantly thicker | lower than that of the prednisolone treated group | significantly lower | lower than that of the inducted control group | lower than that of the inducted control group | lower than that of the inducted control group | superiority to prednisolone | recovered to a level similar to that of the control group without VEGF treatment | recovered to a level similar to that of the control group without VEGF treatment | lower than that of the prednisolone treated group | significantly higher
Tetrapeptide (—Ac): non-acetylated tetrapeptides (RLYE) |  |  |  |  |  |  |  |  |  |  |  |  | recovered to a level similar to that of the control group without VEGF treatment | recovered to a level similar to that of the control group without VEGF treatment |  | 
